Test results taken from US6201122A, “Fluoroaliphatic radical-containing anionic sulfonamido compounds” (3M Innovative Properties Company, priority 1992, dated 2001).

Columns and labels:
Assay type in all cases: physicochemical
[1] = surface tension of aqueous solutions (du Nouy tensiometer); settings: diluted from 10% solids in water/isopropyl alcohol; for Surface tension (dynes/cm) at 100 ppm: 100 ppm (0.01% solids) in deionized water; for Surface tension (dynes/cm) at 500 ppm: 500 ppm (0.05% solids) in deionized water
Description: (§1) In the following Examples and Comparative Examples, fluoroaliphatic radical-containing compounds were prepared. The surface tension of water and isopropyl alcohol solutions containing these compounds was measured using a du Nouy tensiometer. The foaming properties of these solutions were also evaluated by generating foam and measuring the foam volume and half life.
The fluorochemical solutions obtained in Examples 1 to 6 and Comparative Examples C1 to C12 were diluted to 10% solids by dilution with a solution of 70% by volume water and 30% by volume isopropyl alcohol. Further dilutions to 0.01% solids (100 ppm), and 0.05% solids (500 ppm), were done with deionized water.

[2] = foam volume of surfactant solutions (Hobart mixer, graduated cylinder); settings: for Foam Volume: 200 mL of 500 ppm solution, Hobart mixer 3 minutes at medium speed; for foam volume relative to anionic Comparative Examples C4 to C7 (in words): 500 ppm, versus anionic Comparative Examples C4 to C7
Description: as §1
(§2) Foam was generated from 200 mL of the 500 ppm solutions used for measuring surface tension. The surfactant solutions were mixed with a Hobart mixer for 3 minutes at medium speed. Foam volume (cubic centimeters of foam) was measured in a graduated cylinder. Foam half-life was measured as the seconds needed to drain 100 mL of solution from the foam.

[3] = foam half-life (seconds needed to drain 100 mL of solution from the foam); settings: for Foam Half-Life: 200 mL of 500 ppm solution, seconds to drain 100 mL of solution from the foam; for foam half-life relative to anionic Comparative Examples C4 to C7 (in words): 500 ppm, versus anionic Comparative Examples C4 to C7
Description: as §1, §2

SMILES | Surface tension (dynes/cm) at 100 ppm [1] | Surface tension (dynes/cm) at 500 ppm [1] | Foam Volume [2] | Foam Half-Life [3] | foam volume relative to anionic Comparative Examples C4 to C7 (in words) [2] | foam half-life relative to anionic Comparative Examples C4 to C7 (in words) [3]
CCN(CC(=O)O)S(=O)(=O)C(F)(F)C(F)(F)C(F)(F)C(F)(F)C(F)(F)C(F)(F)C(F)(F)C(F)(F)F [Comparative Example C4] | 19.7 dynes/cm | 16.4 dynes/cm | 2600 cm^3 | 6.25 min |  | 
CCN(CCC(=O)O)S(=O)(=O)C(F)(F)C(F)(F)C(F)(F)C(F)(F)C(F)(F)C(F)(F)C(F)(F)C(F)(F)F [Comparative Example C5] | 24.3 dynes/cm | 20.7 dynes/cm | 1500 cm^3 | 1.38 min |  | 
CCN(CCC(=O)O)S(=O)(=O)C(F)(F)C(F)(F)C(F)(F)C(F)(F)C(F)(F)C(F)(F)C(F)(F)C(F)(F)F [Comparative Example C6] | 19.9 dynes/cm | 17.5 dynes/cm | 1900 cm^3 | 4.08 min |  | 
CCN(CCC(=O)O)S(=O)(=O)C(F)(F)C(F)(F)C(F)(F)C(F)(F)C(F)(F)C(F)(F)C(F)(F)C(F)(F)F [Comparative Example C7] | 19.1 dynes/cm | 17.2 dynes/cm | 2200 cm^3 | 5 min |  | 
CCN(CCC(=O)NCCC[N+](C)(C)CC)S(=O)(=O)C(F)(F)C(F)(F)C(F)(F)C(F)(F)C(F)(F)C(F)(F)C(F)(F)C(F)(F)F [Comparative Example C8] | 20.5 dynes/cm | 18.5 dynes/cm | 600 cm^3 | less than 30 sec. |  | 
CCN(CCC(=O)NCCC[N+](C)(C)CCCS(=O)(=O)[O-])S(=O)(=O)C(F)(F)C(F)(F)C(F)(F)C(F)(F)C(F)(F)C(F)(F)C(F)(F)C(F)(F)F [Comparative Example C9] | 20.0 dynes/cm | 18.3 dynes/cm | 900 cm^3 | 0.583 min |  | 
CC[N+](C)(CC)CCNS(=O)(=O)C(F)(F)C(F)(F)C(F)(F)C(F)(F)C(F)(F)C(F)(F)C(F)(F)C(F)(F)F [Comparative Example C11] | 18.1 dynes/cm | 17.5 dynes/cm | 2600 cm^3 | 5.33 min |  | 
C[N+](C)(CCCNS(=O)(=O)C(F)(F)C(F)(F)C(F)(F)C(F)(F)C(F)(F)C(F)(F)F)CC(=O)[O-] [Comparative Example C12] | 21.0 dynes/cm | 19.4 dynes/cm | 2400 cm^3 | 5.33 min |  | 
CC(C)(CS(=O)(=O)O)NC(=O)CCNCCNS(=O)(=O)C(F)(F)C(F)(F)C(F)(F)C(F)(F)C(F)(F)C(F)(F)C(F)(F)C(F)(F)F [Example 1] | 18.3 dynes/cm | 17.1 dynes/cm | 300 cm^3 | less than 30 sec. | much lower foam volume | significantly shorter foam half-life
O=C(O)CCNCCNS(=O)(=O)C(F)(F)C(F)(F)C(F)(F)C(F)(F)C(F)(F)C(F)(F)C(F)(F)C(F)(F)F [Example 2] | 16.8 dynes/cm | 16.5 dynes/cm | 300 cm^3 | less than 30 sec. | much lower foam volume | significantly shorter foam half-life
CC(C)(CS(=O)(=O)O)NC(=O)CCN1CCN(S(=O)(=O)C(F)(F)C(F)(F)C(F)(F)C(F)(F)C(F)(F)C(F)(F)C(F)(F)C(F)(F)F)CC1 [Example 3] | 20.3 dynes/cm | 18.5 dynes/cm |  |  |  | 
CC(C)(CS(=O)(=O)O)NC(=O)CCNCCC[Si](C)(C)O[Si](C)(C)CCCNS(=O)(=O)C(F)(F)C(F)(F)C(F)(F)C(F)(F)F [Example 4] |  | 20.1 dynes/cm |  |  |  | 
CCN(CCSC(CC(=O)O)C(=O)O)S(=O)(=O)C(F)(F)C(F)(F)C(F)(F)C(F)(F)C(F)(F)C(F)(F)C(F)(F)C(F)(F)F (stereo not drawn) [Example 6] |  | 19.3 dynes/cm |  |  |  | 
